Type in all cases: in vivo
Assay [1] has as its system Plutella xylostella (Diamondback Moth). Kind of assay: Example B14: activity against Plutella xylostella (diamondback moth), 96-well artificial diet. The following applies: 216 h, application rate 500 ppm, 9 days after infestation. On the procedure:
Example B14: Activity Against Plutella xylostella (Diamondback Moth)
96-well microtiter plates containing artificial diet were treated with aqueous test solutions, prepared from 10,000 ppm DMSO stock solutions, by a liquid handling robot. After drying, eggs (30 per well) were infested onto a netted lid which was suspended above the diet. The eggs hatch and L1 larvae move down to the diet. The samples were assessed for mortality 9 days after infestation.
The following compounds gave an effect of at least 80% average mortality at an application rate of 500 ppm: […]

Assay [2] relates to Plutella xylostella (Diamond Back Moth). Kind of assay: Example B5: Plutella xylostella (diamond back moth), artificial diet, 24-well, eggs. As to conditions: 192 h, application rate 200 ppm, 8 days after infestation, read-out: effect in at least one of the two categories (mortality or growth inhibition). On the procedure:
Example B5: Plutella xylostella (Diamond Back Moth)
24-well microtiter plates with artificial diet were treated with aqueous test solutions prepared from 10,000 ppm DMSO stock solutions by pipetting. After drying, Plutella eggs were pipetted through a plastic stencil onto a gel blotting paper and the plate was closed with it. The samples were assessed for mortality and growth inhibition in comparison to untreated samples 8 days after infestation. The following compounds gave an effect of at least 80% in at least one of the two categories (mortality or growth inhibition) at an application rate of 200 ppm: […]

Assay [3] relates to Myzus persicae (Green Peach Aphid). Kind of assay: Example B13: activity against Myzus persicae (green peach aphid), 96-well sucrose solution. As to conditions: 120 h, application rate 50 ppm, 5 days after infestation. The text has this: Example B13: Activity Against Myzus persicae (Green Peach Aphid)
Test compounds prepared from 10,000 ppm DMSO stock solutions were applied by a liquid handling robot into 96-well microtiter plates and mixed with a sucrose solution. Parafilm was stretched over the 96-well microtiter plate and a plastic stencil with 96 holes was placed onto the plate. Aphids were sieved into the wells directly onto the Parafilm. The infested plates were closed with a gel blotting card and a second plastic stencil and then turned upside down. The samples were assessed for mortality 5 days after infestation.

For assay [4], the system named is Diabrotica Balteata (Corn Root Worm). Kind of assay: Example B1: Diabrotica balteata (corn root worm), maize sprouts sprayed, L2 larvae. As to conditions: 96 h, application rate 200 ppm, 4 days after infestation, read-out: effect in at least one of the two categories (mortality or growth inhibition). On the procedure:
Example B1: Diabrotica Balteata (Corn Root Worm)
Maize sprouts placed onto an agar layer in 24-well microtiter plates were treated with aqueous test solutions prepared from 10,000 ppm DMSO stock solutions by spraying. After drying, the plates were infested with L2 larvae (6 to 10 per well). The samples were assessed for mortality and growth inhibition in comparison to untreated samples 4 days after infestation.
The following compounds gave an effect of at least 80% in at least one of the two categories (mortality or growth inhibition) at an application rate of 200 ppm: […]

Assay [5] relates to Spodoptera littoralis (Egyptian Cotton Leaf Worm). Kind of assay: Example B9: Spodoptera littoralis (Egyptian cotton leaf worm), cotton leaf discs sprayed, L1 larvae. The following applies: foliar, 72 h, application rate 200 ppm, 3 days after infestation. On the procedure: Example B9: Spodoptera littoralis (Egyptian Cotton Leaf Worm)
Cotton leaf discs were placed onto agar in 24-well microtiter plates and sprayed with aqueous test solutions prepared from 10,000 ppm DMSO stock solutions. After drying the leaf discs were infested with five L1 larvae. The samples were assessed for mortality, anti-feeding effect, and growth inhibition in comparison to untreated samples 3 days after infestation. Control of Spodoptera littoralis by a test sample is given when at least one of the three categories (i.e. mortality, anti-feedant effect, and growth inhibition) is higher than the untreated sample.

In the case of `CC(c1ncnn1-c1ncccn1)N(CC1CC1)C(=O)c1ccc(-n2ccc(C(F)(F)F)n2)cc1` (stereo not shown) [P1, N-(cyclopropylmethyl)-N-[1-(2-pyrimidin-2-yl-1,2,4-triazol-3-yl)ethyl]-4-[3-(trifluoromethyl)pyrazol-1-yl]benzamide], the mortality at 500 ppm in assay [1] was no less than 80%.

As to `CC(c1ncnn1-c1ncccn1)N(CC1CC1)C(=O)c1ccc(C2(C#N)CC2)cc1` (stereo not shown) [P2, 4-(1-cyanocyclopropyl)-N-(cyclopropylmethyl)-N-[1-(2-pyrimidin-2-yl-1,2,4-triazol-3-yl)ethyl]benzamide], the mortality at 500 ppm in assay [1] is no less than 80%.

Regarding `CC(c1ncnn1-c1ncccn1)N(CC1CC1)C(=O)c1cccc(-c2ccc(C(F)(F)F)cc2)c1` (stereo not shown) [P3, N-(cyclopropylmethyl)-N-[1-(2-pyrimidin-2-yl-1,2,4-triazol-3-yl)ethyl]-3-[4-(trifluoromethyl)phenyl)benzamide], the percent effect (mortality or growth inhibition) at 200 ppm in assay [2] was no less than 80%. The compound further displayed a mortality at 500 ppm in assay [1] of no less than 80%.

Consider `CC(c1ncnn1-c1ncccn1)N(CC1CC1)C(=O)c1cccc(-c2ccc(F)cc2)c1` (stereo not shown) [P4, N-(cyclopropylmethyl)-3-(4-fluorophenyl)-N-[1-(2-pyrimidin-2-yl-1,2,4-triazol-3-yl)ethyl]benzamide], for which, in assay [1], the mortality at 500 ppm was no less than 80%.

As to `CC(c1ncnn1-c1ncccn1)N(CC1CC1)C(=O)c1ccc(-c2ccc(F)cc2)cc1` (stereo not shown) [P5, N-(cyclopropylmethyl)-4-(4-fluorophenyl)-N-[1-(2-pyrimidin-2-yl-1,2,4-triazol-3-yl)ethyl]benzamide], the percent effect (mortality or growth inhibition) at 200 ppm in assay [2] was no less than 80%. The same compound had a mortality at 500 ppm in assay [1] of no less than 80%.

Turning to `CC(c1ncnn1-c1ncccn1)N(CC1CC1)C(=O)c1cncc(-c2cccc(C(F)(F)F)c2)c1` (stereo not shown) [P8, N-(cyclopropylmethyl)-N-[1-(2-pyrimidin-2-yl-1,2,4-triazol-3-yl)ethyl]-5-[3-(trifluoromethyl)phenyl]pyridine-3-carboxamide], in assay [2], the percent effect (mortality or growth inhibition) at 200 ppm is no less than 80%.

Turning to `CC(c1ncnn1-c1ncccn1)N(CC1CC1)C(=O)c1cc(-c2cccc(C(F)(F)F)c2)ccn1` (stereo not shown) [P9, N-(cyclopropylmethyl)-N-[1-(2-pyrimidin-2-yl-1,2,4-triazol-3-yl)ethyl]-4-[3-(trifluoromethyl)phenyl]pyridine-2-carboxamide], in assay [2], the percent effect (mortality or growth inhibition) at 200 ppm was no less than 80%. Besides, the mortality at 500 ppm in assay [1] is no less than 80%.

Turning to `CC(c1ncnn1-c1ncccn1)N(CC1CC1)C(=O)c1cnc(C2CC2)nc1` (stereo not shown) [P11, 2-cyclopropyl-N-(cyclopropylmethyl)-N-[1-(2-pyrimidin-2-yl-1,2,4-triazol-3-yl)ethyl]pyrimidine-5-carboxamide], in assay [3], the mortality at 50 ppm is no less than 80%.

In the case of `CC(c1ncnn1-c1ncccn1)N(CC1CC1)C(=O)c1cccc(-c2cccc(C(F)(F)F)c2)n1` (stereo not shown) [P15, N-(cyclopropylmethyl)-N-[1-(2-pyrimidin-2-yl-1,2,4-triazol-3-yl)ethyl]-6-[3-(trifluoromethyl)phenyl]pyridine-2-carboxamide], the percent effect (mortality or growth inhibition) at 200 ppm in assay [2] is no less than 80%. For the same compound, the mortality at 50 ppm in assay [3] was no less than 80%. In assay [1], this compound gave a mortality at 500 ppm of no less than 80%.

As to `CC(c1ncnn1-c1ncccn1)N(CC1CC1)C(=O)c1ccc(Oc2ccc(C(F)(F)F)cc2)cc1` (stereo not shown) [P16, N-(cyclopropylmethyl)-N-[1-(2-pyrimidin-2-yl-1,2,4-triazol-3-yl)ethyl]-4-[4-(trifluoromethyl)phenoxy]benzamide], the percent effect (mortality or growth inhibition) at 200 ppm in assay [4] is no less than 80%.

As for `CC(c1ncnn1-c1ncccn1)N(CC1CC1)C(=O)c1ccc(N2CCCCC2=O)cc1` (stereo not shown) [P17, N-(cyclopropylmethyl)-4-(2-oxo-1-piperidyl)-N-[1-(2-pyrimidin-2-yl-1,2,4-triazol-3-yl)ethyl]benzamide], the mortality at 50 ppm in assay [3] is no less than 80%.

For `CC(c1ncnn1-c1ncccn1)N(CC1CC1)C(=O)c1ccc(-n2ccccc2=O)cc1` (stereo not shown) [P18, N-(cyclopropylmethyl)-4-(2-oxo-1-pyridyl)-N-[1-(2-pyrimidin-2-yl-1,2,4-triazol-3-yl)ethyl]benzamide], the mortality at 50 ppm in assay [3] is no less than 80%.

Compound `CC(c1ncnn1-c1ncccn1)N(CC1CC1)C(=O)c1cc(N2CC(F)(F)C2)cc(C(F)(F)F)c1` (stereo not shown) [P20, N-(cyclopropylmethyl)-3-(3,3-difluoroazetidin-1-yl)-N-[1-(2-pyrimidin-2-yl-1,2,4-triazol-3-yl)ethyl]-5-(trifluoromethyl)benzamide] had a mortality at 50 ppm in assay [3] of no less than 80%. This compound displayed a mortality at 500 ppm in assay [1] of no less than 80%.

Turning to `CC(c1ncnn1-c1ncccn1)N(CC1CC1)C(=O)c1cc(Cl)cc(C(C)(C)C#N)n1` (stereo not shown) [P28, 4-chloro-6-(1-cyano-1-methyl-ethyl)-N-(cyclopropylmethyl)-N-[1-(2-pyrimidin-2-yl-1,2,4-triazol-3-yl)ethyl]pyridine-2-carboxamide], in assay [1], the mortality at 500 ppm was no less than 80%.

For `CC(c1ncnn1-c1ncccn1)N(CC1CC1)C(=O)c1cc(-c2ccc(F)cc2)cc(C(F)(F)F)c1` (stereo not shown) [P36, N-(cyclopropylmethyl)-3-(4-fluorophenyl)-N-[1-(2-pyrimidin-2-yl-1,2,4-triazol-3-yl)ethyl]-5-(trifluoromethyl)benzamide], in assay [2], the percent effect (mortality or growth inhibition) at 200 ppm is no less than 80%. In assay [5], this compound displayed a percent control (mortality, anti-feedant effect or growth inhibition) at 200 ppm of no less than 80%. The mortality at 500 ppm in assay [1] was no less than 80%.

In the case of `CC(c1ncnn1-c1ncccn1)N(CC1CC1)C(=O)c1cc(C(F)(F)F)cc(C2(C)CC2)c1` (stereo not shown) [P38, N-(cyclopropylmethyl)-3-(1-methylcyclopropyl)-N-[1-(2-pyrimidin-2-yl-1,2,4-triazol-3-yl)ethyl]-5-(trifluoromethyl)benzamide], the percent effect (mortality or growth inhibition) at 200 ppm in assay [2] was no less than 80%. In assay [1], this compound had a mortality at 500 ppm of no less than 80%.

For `CC(c1ncnn1-c1ncccn1)N(CC1CC1)C(=O)c1cc(OCC2CC2)cc(C(F)(F)F)c1` (stereo not shown) [P47, 3-(cyclopropylmethoxy)-N-(cyclopropylmethyl)-N-[1-(2-pyrimidin-2-yl-1,2,4-triazol-3-yl)ethyl]-5-(trifluoromethyl)benzamide], in assay [2], the percent effect (mortality or growth inhibition) at 200 ppm is no less than 80%. Besides, the mortality at 50 ppm in assay [3] is no less than 80%. Moreover, the mortality at 500 ppm in assay [1] was no less than 80%.

Turning to `CC(c1ncnn1-c1ncccn1)N(CC1CC1)C(=O)c1cc(OC2CCC2)cc(C(F)(F)F)c1` (stereo not shown) [P48, 3-(cyclobutoxy)-N-(cyclopropylmethyl)-N-[1-(2-pyrimidin-2-yl-1,2,4-triazol-3-yl)ethyl]-5-(trifluoromethyl)benzamide], the mortality at 500 ppm in assay [1] is no less than 80%.

`CC(NC(=O)c1cc(OC(C)(C)C#N)cc(C(F)(F)F)c1)c1ncnn1-c1ncccn1` (stereo not shown) [P56, 3-(1-cyano-1-methyl-ethoxy)-N-[1-(2-pyrimidin-2-yl-1,2,4-triazol-3-yl)ethyl]-5-(trifluoromethyl)benzamide]: the percent effect (mortality or growth inhibition) at 200 ppm in assay [4] and in assay [2] was no less than 80% each time. In assay [5], this compound gave a percent control (mortality, anti-feedant effect or growth inhibition) at 200 ppm of no less than 80%.

On to `CC(NC(=O)c1cc(-c2cncc(Cl)c2)cc(C(F)(F)F)c1)c1ncnn1-c1ncccn1` (stereo not shown) [P63, 3-(5-chloro-3-pyridyl)-N-[1-(2-pyrimidin-2-yl-1,2,4-triazol-3-yl)ethyl]-5-(trifluoromethyl)benzamide], for which the percent effect (mortality or growth inhibition) at 200 ppm in assay [2] was no less than 80%.

Turning to `CC(NC(=O)c1cc(-n2ccc(Cl)n2)nc(C(F)(F)F)c1)c1ncnn1-c1ncccn1` (stereo not shown) [P70, 2-(3-chloropyrazol-1-yl)-N-[1-(2-pyrimidin-2-yl-1,2,4-triazol-3-yl)ethyl]-6-(trifluoromethyl)pyridine-4-carboxamide], in assay [2], the percent effect (mortality or growth inhibition) at 200 ppm is no less than 80%. In assay [5], this compound registered a percent control (mortality, anti-feedant effect or growth inhibition) at 200 ppm of no less than 80%. For the same compound, the mortality at 500 ppm in assay [1] was no less than 80%.

On to `CC(c1ncnn1-c1ncccn1)N(CC1CC1)C(=O)c1cc(C(F)(F)F)cc(C(F)(F)C2CCC2)c1` (stereo not shown) [P71, 3-[cyclobutyl(difluoro)methyl]-N-(cyclopropylmethyl)-N-[1-(2-pyrimidin-2-yl-1,2,4-triazol-3-yl)ethyl]-5-(trifluoromethyl)benzamide], for which the mortality at 500 ppm in assay [1] was no less than 80%.

Source of the values: patent US20210267203A1, “PESTICIDALLY ACTIVE AZOLE-AMIDE COMPOUNDS” (SYNGENTA PARTICIPATIONS AG, priority 2018, published 2021).
